These are literature values, as cited in US20210319872A1, “DRUG AND DEVICE COMBINATION PRODUCTS WITH IMPROVED SAFETY AND EFFICACY PROFILES” (priority 2016, published 2021).

The structures appear in SMILES notation. Read-outs that look alike come from different tables or passages of the source.

Where [1] appears, read: chronic hepatitis C-associated thrombocytopenia.
Where [2] appears, read: chronic idiopathic thrombocytopenic purpura.

Turning to `CC1(C)O[C@@H]2[C@@H](CO[C@@]3(COS(N)(=O)=O)OC(C)(C)O[C@@H]23)O1` [Topiramate (Topamax)], where the note is “in vivo”, the Confusion entry is “Neurologic: Confusion (3% to 11%), Dizziness (4% to 25%),”; the Dizziness entry is reported as “Neurologic: Confusion (3% to 11%), Dizziness (4% to 25%),”; the Fatigue entry was “Other: Fatigue (6% to 16%), Fever (1% to 12%)”; the Fever result is recorded as “Other: Fatigue (6% to 16%), Fever (1% to 12%)”. For the setting “in vivo”, the Flushing entry is “Dermatologic: Flushing (pediatrics, 5%)”; the Hyperammonemia entry is “Endocrine metabolic: Hyperammonemia (Adolescents, 26%),”; the Impaired cognition entry is on record as “Impaired cognition (2% to 7%), Impaired psychomotor”; the Impaired psychomotor performance result is recorded as “performance (2% to 13%), Memory impairment (3% to 12%),”. Also, where the note is “in vivo”, the Infectious disease entry was “Immunologic: Infectious disease (2% to 8%)”; the Memory impairment result was “performance (2% to 13%), Memory impairment (3% to 12%),”; the Nephrolithiasis result is recorded as “Renal: Nephrolithiasis (adults, 1% to 3%)”; the “Serious side effect, Endocrine metabolic” value was “Hypohidrosis, Increased body temperature, Metabolic acidosis”. For the same compound, where the note is “in vivo”, the “Serious side effect, Hepatic” value is “Hepatic: Liver failure”; the “Serious side effect, Neurologic” value is given as “Neurologic: Drug-induced encephalopathy”; the “Serious side effect, Ophthalmic” value was “Ophthalmic: Glaucoma, Myopia, Visual field defect (epilepsy,”; the “Serious side effect, Psychiatric” value was “Psychiatric: Suicidal thoughts”. Where the note is “in vivo”, the Somnolence is 10%), Somnolence (6% to 29%); the Visual field defect was 0.1% to 1%); the Weight decreased result is “(4% to 21%)”.
With `CC1=NN(c2ccc(C)c(C)c2)C(=O)/C1=N\Nc1cccc(-c2cccc(C(=O)O)c2)c1O` [Promacta], the AST/SGOT level raised (Adult) is listed as 4%. For the same compound, the Headache entry (Chronic hepatitis C-associated thrombocytopenia and aplastic anemia) is “thrombocytopenia and aplastic anemia, 21%; chronic idiopathic”. For the same compound, where the note is “aplastic anemia”, the Cough entry was “Respiratory: Cough (Aplastic anemia, 23%; chronic ITP, pediatric,”; the Diarrhea is listed as 21%; the Fever was 14%; the Nausea was 33%), Pain in throat (Chronic idiopathic thrombocytopenic. Further, for the setting “aplastic anemia”, the Pain in throat is 14%. In addition, under “chronic ITP, pediatric”, the ALT/SGPT level raised is reported as 6% and the Cough is given as 9%. Also, under setting [1], the Anemia entry is reported as “thrombocytopenia, 40%)”; the Diarrhea entry is recorded as “thrombocytopenia, 19%; chronic idiopathic thrombocytopenic”; the Fever was 30%; the Liver failure entry was “associated thrombocytopenia, 7%), Liver function tests abnormal”. Besides, under setting [1], the Nausea result was “(Chronic hepatitis C-associated thrombocytopenia, 19%; chronic”; the Portal vein thrombosis result is on record as “C-associated thrombocytopenia, 1%), Thrombosis (chronic”; the Thrombosis result is “hepatitis C-associated thrombocytopenia, 3%)”. Moreover, under setting [2], the Fatigue entry was “purpura, 4%), Fever (Chronic hepatitis C-associated”; the Headache result is “thrombocytopenic purpura, 10%)”; the Pain in throat was 4%. In addition, the Diarrhea (chronic idiopathic thrombocytopenic purpura, adults) was 9%. Besides, the Diarrhea (chronic idiopathic thrombocytopenic purpura, pediatric) was 5%. Besides, under “in vivo”, the Epistaxis is listed as 13%, the “Liver function tests abnormal” value is listed as “(11%)”, the Pharyngitis was 4% and the “Urinary tract infectious disease” value is reported as “Renal: Urinary tract infectious disease (5%)”. The Vomiting result (in vivo) is given as “Vomiting (6%)”. Moreover, where the note is “listed without frequency”, the “Serious side effect, Hematologic” value is listed as “Hematologic: Bleeding, Portal vein thrombosis (chronic hepatitis”; the “Serious side effect, Hepatic” value is “Hepatic: Hepatotoxicity, Liver failure (chronic hepatitis C-”; the “Serious side effect, Renal” value is “Renal: Acute renal failure”. The AST/SGOT level raised (pediatric) is given as 5%.
In the case of `CCCC(=O)Nc1ccc(OCC(O)CNC(C)C)c(C(C)=O)c1` (stereo not drawn) [Acebutolol (Sectral)], under “in vivo”, the Angina result is “Cardiovascular: Angina (2%), Bradyarrhythmia (2%), Heart failure”; the Bradyarrhythmia result was “Cardiovascular: Angina (2%), Bradyarrhythmia (2%), Heart failure”; the Dizziness entry is “Neurologic: Dizziness (6%), Headache (6%)”; the Fatigue entry is reported as “Other: Fatigue (11%)”. Also, under “in vivo”, the Headache result is listed as “Neurologic: Dizziness (6%), Headache (6%)” and the Heart failure result is listed as “(2%)”.
In the case of `CC(C)NCC(O)COc1cccc2ccccc12` (stereo not drawn) [Propranolol (Inderal)], where the note is “in vivo”, the Dizziness entry is on record as “Neurologic: Dizziness (Hypertension, 4% to 7%), Sleep disorder” and the Fatigue entry is reported as “Other: Fatigue (5% to 7%)”.
Turning to `CC(C)NCC(O)c1ccc(NS(C)(=O)=O)cc1` (stereo not drawn) [Sotalol (Betapace)], under “in vivo”, the Bradyarrhythmia is listed as 12.3% to 16%; pediatric, 4%), Cardiac dysrhythmia (5%),; the Cardiac dysrhythmia is 12.3% to 16%; pediatric, 4%), Cardiac dysrhythmia (5%),; the Cerebrovascular accident entry is listed as “Neurologic: Cerebrovascular accident (1%)”; the Chest pain result was “Cardiovascular: Chest pain (Adult, 16%; pediatric, 4%),”. Under “in vivo”, the Congestive heart failure entry is on record as “Congestive heart failure (1.2% to 3.3%), Heart failure (5%),”; the Disturbance of consciousness result was “Neurologic: Disturbance of consciousness (4%), Dizziness (13.1%”; the Dizziness result was “Neurologic: Disturbance of consciousness (4%), Dizziness (13.1%”; the Dyspnea entry was “Respiratory: Dyspnea (9.2% to 21%)”. Besides, for the setting “in vivo”, the Fatigue result is reported as “Other: Fatigue (18.9% to 20%)”; the Heart failure entry was “Congestive heart failure (1.2% to 3.3%), Heart failure (5%),”; the Lightheadedness entry is listed as “Lightheadedness (12%)”; the Rash result is on record as “Dermatologic: Rash (5%)”. The Torsades de pointes entry (in vivo) was “Prolonged QT interval, Torsades de pointes (0.5% to 4%)”.
Take `CCCCc1nc(Cl)c(CO)n1Cc1ccc(-c2ccccc2-c2nnn[nH]2)cc1` [Losartan (Cozaar)]: for the setting “in vivo”, the Anemia entry is recorded as “Hematologic: Anemia (14%)”; the Chest pain result was “Cardiovascular: Chest pain (12%), Hypotension (7%)”; the Cough entry was “Respiratory: Cough (10%)”; the Diarrhea entry was “Gastrointestinal: Diarrhea (15%)”. For the same compound, where the note is “in vivo”, the Dizziness entry was “Neurologic: Asthenia, Dizziness (3%)”; the Hyperkalemia result is “Endocrine metabolic: Hyperkalemia (7%), Hypoglycemia (14%)”; the Hypoglycemia entry is “Endocrine metabolic: Hyperkalemia (7%), Hypoglycemia (14%)”; the Hypotension entry is listed as “Cardiovascular: Chest pain (12%), Hypotension (7%)”.
With `CCC1(CCC(C)C)C(=O)NC(=O)NC1=O` [Amytal (amobarbital)], under “in vivo”, the Agranulocytosis result is “Hematologic: Agranulocytosis (rare), Megaloblastic anemia, With”; the “Common side effect, Neurologic” value is “Neurologic: Confusion, Dizziness, Headache, Somnolence”; the “Injury of liver, With prolonged use” value is “Hepatic: Injury of liver, With prolonged use (rare)”; the “Megaloblastic anemia, With prolonged use” value is recorded as “prolonged use (rare)”. Where the note is “in vivo”, the “Serious side effect, Respiratory” value is “Respiratory: Apnea, Hypoventilation” and the Stevens-Johnson syndrome result is recorded as “Dermatologic: Stevens-Johnson syndrome (rare)”.
In the case of `O=C(Nc1c(Cl)cncc1Cl)c1ccc(OC(F)F)c(OCC2CC2)c1` [Daliresp], for the setting “in vivo”, the Backache result is given as “Musculoskeletal: Backache (3.2%)”, the Decrease in appetite is 2.1%, the Diarrhea is 9.5% and the Dizziness is 2.1%. Under “in vivo”, the Headache is reported as 4.4%, the Influenza entry is “Immunologic: Influenza (2.8%)”, the Insomnia is reported as 2.4% and the Nausea entry was “Nausea (4.7%)”. Besides, the “Serious side effect, Psychiatric” value (listed without frequency) is on record as “Psychiatric: Suicidal thoughts”.
